Data from US9480259B2, “Pyrazolopyrans having herbicidal and pharmaceutical properties” (BASF SE, priority 2012, dated 2016).

biological target: Arabidopsis thaliana SHMT; assay: SHMT activity assay (ED50 SHMT), coupled with N5,N10-CH2-THF dehydrogenase, NADH at 340 nm; assay type: biochemical; conditions: Table 2, Arabidopsis thaliana SHMT enzyme assay; values given as upper bounds
Summary of the method: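 His-tagged SHMT purified on Ni-NTA. NADH formation followed at 340 nm for 30 min; ED50 from inhibition of initial velocity.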

SMILES	EC50 [nM]
Cc1n[nH]c2c1C(c1cc(Cl)cc(OC(F)(F)F)c1)(C1CCC1)C(C#N)=C(N)O2 (stereo not drawn) [Compound 2.266]	< 10
Cc1n[nH]c2c1C(c1ccc(N3CCCC3)c(Cl)c1)(C1CCC1)C(C#N)=C(N)O2 (stereo not drawn) [Compound 2.268]	< 10
Cc1n[nH]c2c1C(c1ccc(F)c(C#N)c1)(C1CCC1)C(C#N)=C(N)O2 (stereo not drawn) [Compound 2.269]	< 10
Cc1n[nH]c2c1C(c1cc(Cl)cc(Cl)c1)(C1CC1(F)F)C(C#N)=C(N)O2 (stereo not drawn) [Compound 2.270]	< 10
Cc1n[nH]c2c1C(c1cc(N3CCOCC3)cc(C(F)(F)F)c1)(C1CCC1)C(C#N)=C(N)O2 (stereo not drawn) [Compound 2.271]	< 10
Cc1n[nH]c2c1C(c1cc(Cl)c(Cl)c(C(F)(F)F)c1)(C1CCC1)C(C#N)=C(N)O2 (stereo not drawn) [Compound 2.273]	< 10
N#CC1=C(N)Oc2[nH]ncc2C1(c1cc(N2CCOCC2)cc(C(F)(F)F)c1)C1CCC1 (stereo not drawn) [Compound 2.274]	< 10
Cc1n[nH]c2c1C(c1cc(Cl)cc(-c3ccsc3)c1)(C1CC1)C(C#N)=C(N)O2 (stereo not drawn) [Compound 2.275]	< 10
Cc1n[nH]c2c1C(c1cccc(C(F)F)c1)(C1CCC1)C(C#N)=C(N)O2 (stereo not drawn) [Compound 2.277]	< 10
CC(C)C1(c2cc(Br)cc(Br)c2)C(C#N)=C(N)Oc2[nH]ncc21 (stereo not drawn) [Compound 2.287]	< 10
COc1c(Cl)cc(C2(C3CCC3)C(C#N)=C(N)Oc3[nH]nc(C)c32)cc1Cl (stereo not drawn) [Compound 2.292]	< 10
COc1c(Cl)cc(C2(C3CCC3)C(C#N)=C(N)Oc3[nH]ncc32)cc1Cl (stereo not drawn) [Compound 2.293]	< 10
N#CC1=C(N)Oc2[nH]ncc2C1(c1cccc(SC(F)(F)F)c1)C1CCC1 (stereo not drawn) [Compound 2.297]	< 100
N#CC1=C(N)Oc2[nH]ncc2C1(c1cc(Br)cc(Br)c1)C1CC=CC1 (stereo not drawn) [Compound 2.301]	< 100
N#CC1=C(N)Oc2[nH]ncc2C1(c1ccc(C(F)(F)F)c(C(F)(F)F)c1)C1CCC1 (stereo not drawn) [Compound 2.302]	< 10
Cc1n[nH]c2c1C(c1cccc(C(C)(F)F)c1)(C1CCC1)C(C#N)=C(N)O2 (stereo not drawn) [Compound 2.305]	< 100
Cc1n[nH]c2c1C(c1cc(I)cc(I)c1)(C1CCC1)C(C#N)=C(N)O2 (stereo not drawn) [Compound 2.308]	< 10

SMILES	EC50 [nM]
N#CC1=C(N)Oc2[nH]ncc2C1(c1cc(I)cc(I)c1)C1CCC1 (stereo not drawn) [Compound 2.309]	< 10
CSc1cccc(C2(C3CCC3)C(C#N)=C(N)Oc3[nH]ncc32)c1 (stereo not drawn) [Compound 2.311]	< 1000
N#CC1=C(N)Oc2[nH]ncc2C1(c1cc(C#N)cc(C(F)(F)F)c1)C1CCC1 (stereo not drawn) [Compound 2.321]	< 10
COc1ccc(C2(C(C)C)C(C#N)=C(N)Oc3[nH]ncc32)cc1Br (stereo not drawn) [Compound 2.322]	< 10
Cc1n[nH]c2c1C(c1cc(Cl)cc(-c3cccnc3)c1)(C1CCC1)C(C#N)=C(N)O2 (stereo not drawn) [Compound 2.324]	< 10
Cc1n[nH]c2c1C(c1cc(C#N)cc(-c3cccc(C(F)(F)F)c3)c1)(C1CCC1)C(C#N)=C(N)O2 (stereo not drawn) [Compound 2.325]	< 10
Cc1n[nH]c2c1C(c1cc(C#N)cc(-c3ccc(F)cc3)c1)(C1CCC1)C(C#N)=C(N)O2 (stereo not drawn) [Compound 2.328]	< 10
COc1c(Cl)cc(C2(C(C)C)C(C#N)=C(N)Oc3[nH]ncc32)cc1Cl (stereo not drawn) [Compound 2.330]	< 10
Cc1n[nH]c2c1C(c1cc(Br)cc(C#N)c1)(C(C)C)C(C#N)=C(N)O2 (stereo not drawn) [Compound 2.334]	< 10
CC(C)C1(c2cc(C#N)cc(C(F)(F)F)c2)C(C#N)=C(N)Oc2[nH]ncc21 (stereo not drawn) [Compound 2.337]	< 10
N#CC1=C(N)Oc2[nH]ncc2C1(c1cc(Cl)cc(-c2cscn2)c1)C1CCC1 (stereo not drawn) [Compound 2.339]	< 100
N#CC1=C(N)Oc2[nH]ncc2C1(c1cc(C#N)cc(-c2ccccn2)c1)C1CCC1 (stereo not drawn) [Compound 2.348]	< 10
Cc1n[nH]c2c1C(c1cc(C#N)cc(-c3cccnc3)c1)(C1CCC1)C(C#N)=C(N)O2 (stereo not drawn) [Compound 2.350]	< 10
N#CC1=C(N)Oc2[nH]ncc2C1(c1cc(C#N)cc(-c2nccs2)c1)C1CCC1 (stereo not drawn) [Compound 2.351]	< 10
N#CC1=C(N)Oc2[nH]ncc2C1(c1cc(C#N)cc(-c2cscn2)c1)C1CCC1 (stereo not drawn) [Compound 2.352]	< 100
Cc1n[nH]c2c1C(c1cc(-c3nnn[nH]3)cc(C(F)(F)F)c1)(C1CCC1)C(C#N)=C(N)O2 (stereo not drawn) [Compound 2.355]	< 10
Cc1n[nH]c2c1C(c1cc(C#N)cc(-c3nnn[nH]3)c1)(C1CCC1)C(C#N)=C(N)O2 (stereo not drawn) [Compound 2.357]	< 100

Other lines, results leading:

EC50 [nM]	SMILES
< 10	COc1ccc(C2(C3(F)CC3)C(C#N)=C(N)Oc3[nH]nc(C)c32)cc1C(F)(F)F (stereo not drawn) [Compound 2.267]
< 10	Cc1n[nH]c2c1C(c1ccc(C(F)(F)F)c(C(F)(F)F)c1)(C1CCC1)C(C#N)=C(N)O2 (stereo not drawn) [Compound 2.272]
< 1000	Cc1n[nH]c2c1C(c1cc(Cl)cc(-c3cccs3)c1)(C1CC1)C(C#N)=C(N)O2 (stereo not drawn) [Compound 2.276]
< 10	Cc1n[nH]c2c1C(c1cccc(OC(F)(F)F)c1)(C1CCC1)C(C#N)=C(N)O2 (stereo not drawn) [Compound 2.278]
< 10	Cc1n[nH]c2c1C(c1cc(Cl)cc(C(N)=O)c1)(C1CCC1)C(C#N)=C(N)O2 (stereo not drawn) [Compound 2.284]
< 10	N#CC1=C(N)Oc2[nH]ncc2C1(c1cc(C#N)cc(C#N)c1)C1CCC1 (stereo not drawn) [Compound 2.286]
< 100	N#CC1=C(N)Oc2[nH]ncc2C1(c1cc(Cl)cc(Cl)c1)C1(F)CCC1 (stereo not drawn) [Compound 2.288]
< 10	Cc1n[nH]c2c1C(c1ccc(Cl)c(OC(F)(F)F)c1)(C1CCC1)C(C#N)=C(N)O2 (stereo not drawn) [Compound 2.289]
< 100	N#CC1=C(N)Oc2[nH]ncc2C1(c1ccc(Cl)c(OC(F)(F)F)c1)C1CCC1 (stereo not drawn) [Compound 2.290]
< 10	Cc1n[nH]c2c1C(c1cc(Cl)cc(Cl)c1)(C1CC=CC1)C(C#N)=C(N)O2 (stereo not drawn) [Compound 2.291]
< 10	N#CC1=C(N)Oc2[nH]ncc2C1(c1cc(Cl)cc(I)c1)C1CCC1 (stereo not drawn) [Compound 2.298]
< 10	Cc1n[nH]c2c1C(c1cc(Cl)cc(I)c1)(C1CCC1)C(C#N)=C(N)O2 (stereo not drawn) [Compound 2.299]
< 10	Cc1n[nH]c2c1C(c1cc(Br)cc(Br)c1)(C1CC=CC1)C(C#N)=C(N)O2 (stereo not drawn) [Compound 2.300]
< 10	Cc1n[nH]c2c1C(c1ccc(OC(F)(F)F)c(Cl)c1)(C1CCC1)C(C#N)=C(N)O2 (stereo not drawn) [Compound 2.303]
< 10	Cc1n[nH]c2c1C(c1cc(Br)cc(OC(F)(F)F)c1)(C1CCC1)C(C#N)=C(N)O2 (stereo not drawn) [Compound 2.307]
< 10	CSc1cccc(C2(C3CCC3)C(C#N)=C(N)Oc3[nH]nc(C)c32)c1 (stereo not drawn) [Compound 2.310]
< 1000	Cc1n[nH]c2c1C(c1cccc([S+](C)[O-])c1)(C1CCC1)C(C#N)=C(N)O2 (stereo not drawn) [Compound 2.312]
< 1000	Cc1n[nH]c2c1C(c1cccc(S(C)(=O)=O)c1)(C1CCC1)C(C#N)=C(N)O2 (stereo not drawn) [Compound 2.313]
< 100	C#CCCC1(c2cc(Cl)cc(Cl)c2)C(C#N)=C(N)Oc2[nH]nc(C)c21 (stereo not drawn) [Compound 2.314]
< 10	CC(C)C1(c2cc(Cl)cc(C(F)(F)F)c2)C(C#N)=C(N)Oc2[nH]ncc21 (stereo not drawn) [Compound 2.315]
< 10	Cc1n[nH]c2c1C(c1cc(Cl)cc(C(F)(F)F)c1)(C(C)C)C(C#N)=C(N)O2 (stereo not drawn) [Compound 2.316]

EC50 [nM]	SMILES
< 10	CC(C)C1(c2cc(Cl)cc(Br)c2)C(C#N)=C(N)Oc2[nH]ncc21 (stereo not drawn) [Compound 2.317]
< 10	Cc1n[nH]c2c1C(c1cc(Cl)cc(-c3ccccn3)c1)(C1CCC1)C(C#N)=C(N)O2 (stereo not drawn) [Compound 2.318]
< 10	N#CC1=C(N)Oc2[nH]ncc2C1(c1cc(Cl)cc(-c2nccs2)c1)C1CCC1 (stereo not drawn) [Compound 2.319]
< 10	Cc1n[nH]c2c1C(c1cc(Cl)cc(-c3nccs3)c1)(C1CCC1)C(C#N)=C(N)O2 (stereo not drawn) [Compound 2.320]
< 100	Cc1n[nH]c2c1C(c1cc(C#N)cc(-c3ccccc3)c1)(C1CCC1)C(C#N)=C(N)O2 (stereo not drawn) [Compound 2.323]
< 10	Cc1n[nH]c2c1C(c1cc(C#N)cc(-c3ccc(C(F)(F)F)cc3)c1)(C1CCC1)C(C#N)=C(N)O2 (stereo not drawn) [Compound 2.326]
< 10	Cc1n[nH]c2c1C(c1cc(C#N)cc(-c3cccc(F)c3)c1)(C1CCC1)C(C#N)=C(N)O2 (stereo not drawn) [Compound 2.327]
< 10	Cc1n[nH]c2c1C(c1cc(C#N)cc(-c3ccsc3)c1)(C1CCC1)C(C#N)=C(N)O2 (stereo not drawn) [Compound 2.329]
< 10	COc1c(Cl)cc(C2(C(C)C)C(C#N)=C(N)Oc3[nH]nc(C)c32)cc1Cl (stereo not drawn) [Compound 2.331]
< 10	Cc1n[nH]c2c1C(c1cc(C#N)cc(-c3cccc(Cl)c3)c1)(C1CCC1)C(C#N)=C(N)O2 (stereo not drawn) [Compound 2.332]
< 10	Cc1n[nH]c2c1C(c1cc(C#N)cc(-c3ccc(Cl)cc3)c1)(C1CCC1)C(C#N)=C(N)O2 (stereo not drawn) [Compound 2.333]
< 10	CC(C)C1(c2cc(C#N)cc(C#N)c2)C(C#N)=C(N)Oc2[nH]ncc21 (stereo not drawn) [Compound 2.336]
< 10	Cc1n[nH]c2c1C(c1cc(C#N)cc(C(F)(F)F)c1)(C(C)C)C(C#N)=C(N)O2 (stereo not drawn) [Compound 2.338]
< 10	Cc1n[nH]c2c1C(c1cc(Cl)cc(Oc3ccc(Cl)cc3)c1)(C1CCC1)C(C#N)=C(N)O2 (stereo not drawn) [Compound 2.341]
< 10	COc1ccc(Oc2cc(Cl)cc(C3(C4CCC4)C(C#N)=C(N)Oc4[nH]ncc43)c2)cc1 (stereo not drawn) [Compound 2.343]
< 10	COc1ccc(Oc2cc(Cl)cc(C3(C4CCC4)C(C#N)=C(N)Oc4[nH]nc(C)c43)c2)cc1 (stereo not drawn) [Compound 2.344]
< 10	Cc1n[nH]c2c1C(c1cc(Cl)cc(C#N)c1)(C(C)C)C(C#N)=C(N)O2 (stereo not drawn) [Compound 2.345]
< 10000	Cc1n[nH]c2c1C(c1cc(-c3nnn[nH]3)cc(-c3nnn[nH]3)c1)(C1CCC1)C(C#N)=C(N)O2 (stereo not drawn) [Compound 2.354]
< 10	Cc1n[nH]c2c1C(c1cccc(OC(F)(F)C(F)F)c1)(C1CCC1)C(C#N)=C(N)O2 (stereo not drawn) [Compound 2.356]
< 10	Cc1n[nH]c2c1C(c1cc(Br)cc(I)c1)(C1CCC1)C(C#N)=C(N)O2 (stereo not drawn) [Compound 2.358]
